Source: US10160747B2, “Compounds and methods for kinase modulation, and indications therefor” (Plexxikon Inc., priority 2016, dated 2018)
Substitutions are numbered along the chain they refer to.

Legend:
BA/F3-FLT3-ITD + D835Y = target: T1, BA/F3-FLT3-ITD + D835Y (Homo sapiens, UniProt P36888, D835Y, cells depend on it, form not given); experiment: Engineered BA/F3 cell growth assay, FLT3 ITD/D835Y; format: cell-based, murine; details: three day growth assay in the absence of IL3; read-out: BaF3_FLT3_ITD/D835Y
T1 sequence (P36888 with tags, fused parts or gaps INS600HVDFREYEYD/D835Y): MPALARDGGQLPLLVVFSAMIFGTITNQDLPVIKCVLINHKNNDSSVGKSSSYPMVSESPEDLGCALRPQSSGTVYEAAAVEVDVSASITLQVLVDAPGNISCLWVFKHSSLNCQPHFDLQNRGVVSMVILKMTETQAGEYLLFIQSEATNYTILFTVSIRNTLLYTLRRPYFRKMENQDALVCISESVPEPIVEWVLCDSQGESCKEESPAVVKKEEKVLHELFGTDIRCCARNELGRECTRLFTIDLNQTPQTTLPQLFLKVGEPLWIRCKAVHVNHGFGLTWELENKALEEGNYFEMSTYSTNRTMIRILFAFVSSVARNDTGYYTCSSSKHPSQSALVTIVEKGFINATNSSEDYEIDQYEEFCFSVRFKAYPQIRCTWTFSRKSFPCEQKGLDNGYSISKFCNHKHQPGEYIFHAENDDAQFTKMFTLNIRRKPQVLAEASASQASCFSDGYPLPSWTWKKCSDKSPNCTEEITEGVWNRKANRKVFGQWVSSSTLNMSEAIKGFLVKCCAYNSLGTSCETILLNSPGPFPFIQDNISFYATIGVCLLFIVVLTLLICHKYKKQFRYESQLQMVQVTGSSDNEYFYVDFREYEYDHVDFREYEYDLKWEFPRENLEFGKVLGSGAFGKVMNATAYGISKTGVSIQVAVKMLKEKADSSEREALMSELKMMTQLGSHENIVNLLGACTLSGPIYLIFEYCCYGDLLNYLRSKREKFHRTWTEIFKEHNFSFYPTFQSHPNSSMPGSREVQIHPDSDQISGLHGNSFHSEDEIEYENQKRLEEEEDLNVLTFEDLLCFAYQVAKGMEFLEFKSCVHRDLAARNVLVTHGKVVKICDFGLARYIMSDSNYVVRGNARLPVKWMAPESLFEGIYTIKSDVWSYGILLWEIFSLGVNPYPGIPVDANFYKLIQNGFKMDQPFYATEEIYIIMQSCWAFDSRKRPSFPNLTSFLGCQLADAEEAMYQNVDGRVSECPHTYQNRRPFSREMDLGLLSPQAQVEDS
Method in brief: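 IC50 derived from CellTiter-Glo ATP luminescence after 3 days at 37 °C, 5% CO2, over eight 1:3 dilutions from 1 μM (0.2% DMSO final). Cells: IL-3-independent murine Ba/F3 expressing full-length FLT3 ITD/D835Y, 1×10^4 per well.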

BaF3_FLT3_ITD/F691L = target: T2, BaF3_FLT3_ITD/F691L (Homo sapiens, UniProt P36888, F691L, cells depend on it, form not given); experiment: Engineered BaF3 cell growth assay, FLT3 ITD/F691L; format: cell-based, murine; details: three day growth assay in the absence of IL3
T2 sequence (P36888 with tags, fused parts or gaps INS600HVDFREYEYD/F691L): T1 sequence (P36888 with tags, fused parts or gaps INS600HVDFREYEYD/D835Y) with F701L, Y845D
Description: The FLT3 inhibitors may be assessed using the MOLM-14, Acute Myeloid Leukemia cell line that endogenously expresses FLT3 ITD or derivatives of the human FLT3 AML cell line which acquired the D835Y (activation loop) of F691L (gatekeeper) mutation after selection in escalating doses of the FLT3 Inhibitor AC220. FLT3 inhibitors may also be assessed using cells that are engineered to express mutant FLT3. For engineered cells, murine Ba/F3 cells were transfected with full-length FLT3 ITD/D835Y mutations. The parental BA/F3 cells are dependent upon Interleukin-3 (IL-3) for survival, and introduction of the FLT3 constructs rendered these cells dependent upon FLT3 kinase activity when cultured in the absences of IL-3. Engineered BA/F3 cell growth assays can be performed in either the […] of IL-3, to assess the compound inhibition of FLT3 or to detect the presence of off-target activity, respectively. Inhibitors of FLT3 kinase activity reduce or eliminate the FLT3 oncogenic signaling, resulting in reduced cell proliferation. This inhibition is measured as a function of compound concentration to assess IC50 values.
Cells were seeded at 1×10^4 cells per well of a 96 well cell culture plate in 50 μl of cell culture medium. Compounds were dissolved in DMSO, typically at a concentration of 0.5 mM and were serially diluted 1:3 for a total of eight points and added to the cells to final concentrations of […], 0.0041, 0.0014 and 0.00046 μM in 100 μl cell culture medium (final concentration 0.2% DMSO). […] The cells were incubated at 37° C., 5% CO2 for three days. CellTiter-Glo Buffer (Promega Cell Viability Assay catalog #G7573) and substrate were equilibrated to room temperature, and enzyme/substrate Recombinant Firefly Luciferase/Beetle Luciferin was reconstituted. […] The plates were read on a Tecan M1000 using Luminescence protocol modified to read 0.1 s per well. The luminescence reading assesses the ATP content, which correlates directly with cell number such that the reading as a function of compound concentration was used to determine the IC50 value. […]

BaF3-FLT3-ITD-F691L = target: T3, BaF3-FLT3-ITD-F691L (Homo sapiens, UniProt P36888, F691L, cells depend on it, form not given); experiment: Cell Assay CS0047: BaF3-FLT3-ITD-F691L CTB; format: cell-based, murine; details: three day growth assay in the absence of IL3; read-out: Cell Assay: CS0047: BaF3-FLT3-ITD-F691L CTB:IC50
T3 sequence (P36888 with tags, fused parts or gaps INS600HVDFREYEYD/F691L): T1 sequence (P36888 with tags, fused parts or gaps INS600HVDFREYEYD/D835Y) with F701L, Y845D
Description: (§1) The BaF3 assays as developed used to generate the data in Tables 7 and 8 are identical and differ only in minor details in regards to vector design, not biological function. Both introduce the FLT3 gene with MV4-11 based ITD duplications and resistance mutations from an exogenous promoter (MSCV and CMV respectively) in the exact same cell line.
(§2) As a result of the expressed FLT3 protein, the IL3 factor dependent BaF3 cell clones become IL3-factor independent.
(§3) The compounds in Tables 7 and 8 were tested in an identical fashion by incubating such clones in with increasing concentrations. Inhibition of the FLT3 activity by an inhibitor results in factor dependency, which in the absence of IL3 results in cell death in the three day growth assays.

BaF3-FLT3-ITD-D835V = target: T4, BaF3-FLT3-ITD-D835V (Homo sapiens, UniProt P36888, D835V, cells depend on it, form not given); experiment: Cell Assay CS0048: BaF3-FLT3-ITD-D835V CTB; format: cell-based, murine; details: three day growth assay in the absence of IL3; read-out: Cell Assay: CS0048: BaF3-FLT3-ITD-D835V CTB:IC50
T4 sequence (P36888 with tags, fused parts or gaps INS600HVDFREYEYD/D835V): T1 sequence (P36888 with tags, fused parts or gaps INS600HVDFREYEYD/D835Y) with Y845V
Description: as §1, §2, §3

[1] = test system: quizartinib resistance-causing mutants; details: FLT3-ITD KD mutants, in addition to other mutant isoforms; cited from earlier work
[2] = test system: leukemia cell that express either wild type FLT3 or FLT3-ITD mutations; details: cells expressing wild type FLT3 or FLT3-ITD mutations; cited from earlier work

Row | SMILES | GI50 (BA/F3-FLT3-ITD + D835Y) | GI50 (BaF3_FLT3_ITD/F691L) | GI50 (BaF3-FLT3-ITD-F691L) | GI50 (BaF3-FLT3-ITD-D835V) | other results
1 | CNC(=O)c1cc(Oc2ccc(NC(=O)Nc3ccc(Cl)c(C(F)(F)F)c3)cc2)ccn1 [sorafenib] |  |  |  |  | activity against identified quizartinib resistance-causing mutants [1]: ineffective
2 | Cn1cc(Nc2ncc(-c3ccc(CC(=O)Nc4ccnc(C(F)(F)F)c4)cc3)cn2)cn1 [drawing 325] | 0.000108 µM | 0.000313 µM |  |  | 
3 | Cn1cc(Nc2ncc(-c3ccc(CC(=O)Nc4cccc(C(F)(F)F)c4)cc3)cn2)cn1 [drawing 326] | 0.000462 µM | 0.00154 µM |  |  | 
4 | C=CCNC1=C2C[C@@H](C)C[C@H](OC)[C@H](O)[C@@H](C)/C=C(\C)[C@H](OC(N)=O)[C@@H](OC)/C=C\C=C(/C)C(=O)NC(=CC1=O)C2=O [17″AAG, 17AAG] |  |  |  |  | growth of leukemia cells [2]: inhibited

Further lines, with some results ahead:

Row | GI50 (BA/F3-FLT3-ITD + D835Y) | GI50 (BaF3_FLT3_ITD/F691L) | GI50 (BaF3-FLT3-ITD-F691L) | GI50 (BaF3-FLT3-ITD-D835V) | SMILES | other results
5 | 0.000444 µM | 0.000434 µM |  |  | Cn1cc(Nc2ncc(-c3ccc(CC(=O)Nc4ccc(C(C)(C)C)nc4)cc3)cn2)cn1 [drawing 327] | 
6 |  |  | 0.0739 µM | 0.145 µM | CC(C)(c1cc(NC(=O)Cc2ccc(-c3ccc(NCCN4CCOCC4)nc3)cc2)no1)C(F)(F)F | 
7 |  |  | 0.0778 µM | 0.585 µM | CC(C)(C)c1cc(NC(=O)Nc2ccc(-c3cnc(NC4CC4)nc3)cn2)no1 | 
8 |  |  | 0.11 µM | 0.673 µM | CC(C)(C)c1cc(NC(=O)Nc2ccc(-c3cnc(NC4CCOCC4)nc3)cn2)no1 | 
9 |  |  | 0.0432 µM | 0.092 µM | CNc1ccc(-c2ccc(CC(=O)Nc3cc(C(C)(C)C)on3)cc2)cn1 | 
